{
  "source": "patent US20240000872A1",
  "about": "“NOVEL BACTERIOPHAGE THAT LYSES ACINETOBACTER GENUS BACTERIA HAVING RESISTANCE TO ANTIBIOTICS” (priority 2020, published 2024)",
  "system": "Acinetobacter baumannii strains",
  "assay": "Antibiotic susceptibility test (CLSI disk diffusion test method, read per CLSI 2016); for antibiotic susceptibility S/I/R: key: ‘S’ means susceptible; ‘I’ means intermediate; ‘R’ means resistant",
  "format": "cell-based",
  "set-up": "antibiotic susceptibility test value / susceptibility test value (number given before S/I/R) / antibiotic susceptibility value: unit not given here",
  "data": [
    {"smiles": "CCN1CCN(C(=O)N[C@@H](C(=O)N[C@@H]2C(=O)N3[C@@H]2SC(C)(C)[C@@H]3C(=O)O)c2ccccc2)C(=O)C1=O", "note": "[Piperalillinc]", "values": [
      {"measurement": "antibiotic susceptibility S/I/R", "setting": "host strain YMC14/06/R2359", "result": "R"},
      {"measurement": "antibiotic susceptibility value", "setting": "host strain YMC14/06/R2359", "result": 128},
      {"measurement": "antibiotic susceptibility S/I/R", "setting": "host strain YMC14/08/R1169", "result": "R"},
      {"measurement": "antibiotic susceptibility value", "setting": "host strain YMC14/08/R1169", "result": 128},
      {"measurement": "antibiotic susceptibility S/I/R", "setting": "host strain YMC14/08/T90", "result": "R"},
      {"measurement": "antibiotic susceptibility value", "setting": "host strain YMC14/08/T90", "result": 128},
      {"measurement": "antibiotic susceptibility S/I/R", "setting": "host strain YMC15/02/R436", "result": "R"},
      {"measurement": "antibiotic susceptibility value", "setting": "host strain YMC15/02/R436", "result": 128},
      {"measurement": "antibiotic susceptibility S/I/R", "setting": "host strain YMC15/02/T28", "result": "R"},
      {"measurement": "antibiotic susceptibility value", "setting": "host strain YMC15/02/T28", "result": 128},
      {"measurement": "antibiotic susceptibility S/I/R", "setting": "host strain YMC15/03/R1604", "result": "R"},
      {"measurement": "antibiotic susceptibility value", "setting": "host strain YMC15/03/R1604", "result": 128},
      {"measurement": "antibiotic susceptibility S/I/R", "setting": "host strain YMC15/09/R1869", "result": "R"},
      {"measurement": "antibiotic susceptibility value", "setting": "host strain YMC15/09/R1869", "result": 128},
      {"measurement": "antibiotic susceptibility S/I/R", "setting": "host strain YMC16/01/P11", "result": "R"},
      {"measurement": "antibiotic susceptibility value", "setting": "host strain YMC16/01/P11", "result": 128},
      {"measurement": "antibiotic susceptibility S/I/R", "setting": "host strain YMC16/01/R123", "result": "R"},
      {"measurement": "antibiotic susceptibility value", "setting": "host strain YMC16/01/R123", "result": 128},
      {"measurement": "antibiotic susceptibility S/I/R", "setting": "host strain YMC16/01/R198", "result": "R"},
      {"measurement": "antibiotic susceptibility value", "setting": "host strain YMC16/01/R198", "result": 128},
      {"measurement": "antibiotic susceptibility S/I/R", "setting": "host strain YMC16/01/R353", "result": "R"},
      {"measurement": "antibiotic susceptibility value", "setting": "host strain YMC16/01/R353", "result": 128},
      {"measurement": "antibiotic susceptibility S/I/R", "setting": "host strain YMC16/01/R380", "result": "R"},
      {"measurement": "antibiotic susceptibility value", "setting": "host strain YMC16/01/R380", "result": 128},
      {"measurement": "antibiotic susceptibility S/I/R", "setting": "host strain YMC16/01/R397", "result": "R"},
      {"measurement": "antibiotic susceptibility value", "setting": "host strain YMC16/01/R397", "result": 128},
      {"measurement": "antibiotic susceptibility S/I/R", "setting": "host strain YMC16/01/R405", "result": "R"},
      {"measurement": "antibiotic susceptibility value", "setting": "host strain YMC16/01/R405", "result": 128},
      {"measurement": "antibiotic susceptibility S/I/R", "setting": "host strain YMC16/03/R4461", "result": "R"},
      {"measurement": "antibiotic susceptibility value", "setting": "host strain YMC16/03/R4461", "result": 128},
      {"measurement": "antibiotic susceptibility S/I/R", "setting": "host strain YMC16/05/R2210", "result": "R"},
      {"measurement": "antibiotic susceptibility value", "setting": "host strain YMC16/05/R2210", "result": 128},
      {"measurement": "antibiotic susceptibility S/I/R", "setting": "host strain YMC16/07/R2512", "result": "R"},
      {"measurement": "antibiotic susceptibility value", "setting": "host strain YMC16/07/R2512", "result": 128},
      {"measurement": "antibiotic susceptibility S/I/R", "setting": "host strain YMC16/09/R2471", "result": "R"},
      {"measurement": "antibiotic susceptibility value", "setting": "host strain YMC16/09/R2471", "result": 128},
      {"measurement": "antibiotic susceptibility S/I/R", "setting": "host strain YMC16/10/R2537", "result": "R"},
      {"measurement": "antibiotic susceptibility value", "setting": "host strain YMC16/10/R2537", "result": 128},
      {"measurement": "antibiotic susceptibility S/I/R", "setting": "host strain YMC16/12/B11422", "result": "R"},
      {"measurement": "antibiotic susceptibility value", "setting": "host strain YMC16/12/B11422", "result": 128},
      {"measurement": "antibiotic susceptibility S/I/R", "setting": "host strain YMC16/12/B11449", "result": "R"},
      {"measurement": "antibiotic susceptibility value", "setting": "host strain YMC16/12/B11449", "result": 128},
      {"measurement": "antibiotic susceptibility S/I/R", "setting": "host strain YMC16/12/B13325", "result": "R"},
      {"measurement": "antibiotic susceptibility value", "setting": "host strain YMC16/12/B13325", "result": 128},
      {"measurement": "antibiotic susceptibility S/I/R", "setting": "host strain YMC16/12/P503", "result": "R"},
      {"measurement": "antibiotic susceptibility value", "setting": "host strain YMC16/12/P503", "result": 128},
      {"measurement": "antibiotic susceptibility S/I/R", "setting": "host strain YMC16/12/R4637", "result": "R"},
      {"measurement": "antibiotic susceptibility value", "setting": "host strain YMC16/12/R4637", "result": 128},
      {"measurement": "antibiotic susceptibility S/I/R", "setting": "host strain YMC17/01/B8053", "result": "R"},
      {"measurement": "antibiotic susceptibility value", "setting": "host strain YMC17/01/B8053", "result": 128},
      {"measurement": "antibiotic susceptibility S/I/R", "setting": "host strain YMC17/01/B10087", "result": "R"},
      {"measurement": "antibiotic susceptibility value", "setting": "host strain YMC17/01/B10087", "result": 128},
      {"measurement": "antibiotic susceptibility S/I/R", "setting": "host strain YMC17/01/B12075", "result": "R"},
      {"measurement": "antibiotic susceptibility value", "setting": "host strain YMC17/01/B12075", "result": 128},
      {"measurement": "antibiotic susceptibility S/I/R", "setting": "host strain YMC17/01/B13454", "result": "R"},
      {"measurement": "antibiotic susceptibility value", "setting": "host strain YMC17/01/B13454", "result": 128},
      {"measurement": "antibiotic susceptibility S/I/R", "setting": "host strain YMC17/01/P518", "result": "R"},
      {"measurement": "antibiotic susceptibility value", "setting": "host strain YMC17/01/P518", "result": 128},
      {"measurement": "antibiotic susceptibility S/I/R", "setting": "host strain YMC17/01/R2812", "result": "R"},
      {"measurement": "antibiotic susceptibility value", "setting": "host strain YMC17/01/R2812", "result": 128},
      {"measurement": "antibiotic susceptibility S/I/R", "setting": "host strain YMC17/02/B14", "result": "R"},
      {"measurement": "antibiotic susceptibility value", "setting": "host strain YMC17/02/B14", "result": 128},
      {"measurement": "antibiotic susceptibility S/I/R", "setting": "host strain YMC17/02/B87", "result": "R"},
      {"measurement": "antibiotic susceptibility value", "setting": "host strain YMC17/02/B87", "result": 128},
      {"measurement": "antibiotic susceptibility S/I/R", "setting": "host strain YMC17/02/B721", "result": "R"},
      {"measurement": "antibiotic susceptibility value", "setting": "host strain YMC17/02/B721", "result": 128},
      {"measurement": "antibiotic susceptibility S/I/R", "setting": "host strain YMC17/02/B4039", "result": "R"},
      {"measurement": "antibiotic susceptibility value", "setting": "host strain YMC17/02/B4039", "result": 128},
      {"measurement": "antibiotic susceptibility S/I/R", "setting": "host strain YMC17/02/B4520", "result": "R"},
      {"measurement": "antibiotic susceptibility value", "setting": "host strain YMC17/02/B4520", "result": 128},
      {"measurement": "antibiotic susceptibility S/I/R", "setting": "host strain YMC17/02/B4864", "result": "S"},
      {"measurement": "antibiotic susceptibility value", "setting": "host strain YMC17/02/B4864", "result": 8},
      {"measurement": "antibiotic susceptibility S/I/R", "setting": "host strain YMC17/02/B8414", "result": "R"},
      {"measurement": "antibiotic susceptibility value", "setting": "host strain YMC17/02/B8414", "result": 128},
      {"measurement": "antibiotic susceptibility S/I/R", "setting": "host strain YMC17/02/P523", "result": "R"},
      {"measurement": "antibiotic susceptibility value", "setting": "host strain YMC17/02/P523", "result": 128},
      {"measurement": "antibiotic susceptibility S/I/R", "setting": "host strain YMC17/02/R541", "result": "R"},
      {"measurement": "antibiotic susceptibility value", "setting": "host strain YMC17/02/R541", "result": 128},
      {"measurement": "antibiotic susceptibility S/I/R", "setting": "host strain YMC17/02/R2392", "result": "R"},
      {"measurement": "antibiotic susceptibility value", "setting": "host strain YMC17/02/R2392", "result": 128},
      {"measurement": "antibiotic susceptibility S/I/R", "setting": "host strain YMC17/03/B4730", "result": "R"},
      {"measurement": "antibiotic susceptibility value", "setting": "host strain YMC17/03/B4730", "result": 128},
      {"measurement": "antibiotic susceptibility S/I/R", "setting": "host strain YMC17/03/B5000", "result": "R"},
      {"measurement": "antibiotic susceptibility value", "setting": "host strain YMC17/03/B5000", "result": 128},
      {"measurement": "antibiotic susceptibility S/I/R", "setting": "host strain YMC17/03/P971", "result": "R"},
      {"measurement": "antibiotic susceptibility value", "setting": "host strain YMC17/03/P971", "result": 128},
      {"measurement": "antibiotic susceptibility S/I/R", "setting": "host strain YMC17/03/R348", "result": "R"},
      {"measurement": "antibiotic susceptibility value", "setting": "host strain YMC17/03/R348", "result": 128},
      {"measurement": "antibiotic susceptibility S/I/R", "setting": "host strain YMC17/03/R585", "result": "R"},
      {"measurement": "antibiotic susceptibility value", "setting": "host strain YMC17/03/R585", "result": 128},
      {"measurement": "antibiotic susceptibility S/I/R", "setting": "host strain YMC17/03/R1888", "result": "R"},
      {"measurement": "antibiotic susceptibility value", "setting": "host strain YMC17/03/R1888", "result": 128},
      {"measurement": "antibiotic susceptibility S/I/R", "setting": "host strain YMC17/03/R3279", "result": "R"},
      {"measurement": "antibiotic susceptibility value", "setting": "host strain YMC17/03/R3279", "result": 128},
      {"measurement": "antibiotic susceptibility S/I/R", "setting": "host strain YMC17/03/R4077", "result": "R"},
      {"measurement": "antibiotic susceptibility value", "setting": "host strain YMC17/03/R4077", "result": 128},
      {"measurement": "antibiotic susceptibility S/I/R", "setting": "host strain YMC17/03/R4607", "result": "R"},
      {"measurement": "antibiotic susceptibility value", "setting": "host strain YMC17/03/R4607", "result": 128},
      {"measurement": "antibiotic susceptibility S/I/R", "setting": "host strain YMC17/04/R488", "result": "R"},
      {"measurement": "antibiotic susceptibility value", "setting": "host strain YMC17/04/R488", "result": 128},
      {"measurement": "antibiotic susceptibility S/I/R", "setting": "host strain YMC17/04/R640", "result": "R"},
      {"measurement": "antibiotic susceptibility value", "setting": "host strain YMC17/04/R640", "result": 128},
      {"measurement": "antibiotic susceptibility S/I/R", "setting": "host strain YMC/17/05/R1095", "result": "R"},
      {"measurement": "antibiotic susceptibility value", "setting": "host strain YMC/17/05/R1095", "result": 128}
    ]}
  ]
}
